Test results reported in patent US7521065B2, “Compositions for the treatment and prevention of cancer” (priority 2001, dated 2009).

Assays:
[1] = test system: squamous carcinoma on nose; assay: Topical cream treatment of squamous carcinoma, case report Example III; format: in vivo, human; details: cream containing 6%, twice per day for 5 days; person
[2] = test system: several human cancer cell lines; details: cell cultures; cited from earlier work
[3] = test system: skin lesion with all characteristics of a superficially spreading melanoma; assay: Topical treatment of a skin lesion, case report Example I; format: in vivo, human; details: 10% solution in n-decane, twice a day for 3 days, person, lesion 0.8 cm
Excerpt: A subject presented with a skin lesion of 0.8 cm diameter on their right upper chest.

[4] = test system: irregular melanotic spot on right hand; assay: Topical treatment of a melanotic spot, case report Example II; format: in vivo, human; details: 10% solution in 1:1 n-decane/n-dodecane, once every day for one week, person
Excerpt: A subject presented with a small irregular melanotic spot of approximately 3 mm diameter on their right hand which the subject had since birth but which in recent years had increased in size and became unsymmetrical. […] New skin growing over the lesion closed it without a scar.

[5] = test system: small lump on breast; assay: Cream applied onto breasts, case report Example V; format: in vivo, human; details: 0.2% in moisturizing cream, once a week; person
Excerpt: A person with a small lump on their breast was told that they were at risk of developing breast cancer. They applied onto their breasts once a week a cream containing 0.2% di-n-hexyl diselenide in a moisturizing cream of conventional composition. […] They presently continue to apply the selenium composition once a week as a precautionary measure.

[6] = test system: metastatic cutaneous and subcutaneous lesions and affected lymph nodes (breast cancer); assay: Topical treatment of breast cancer metastases, case report Example VI; format: in vivo, human
Excerpt: In May 1998 a tumor was diagnosed in the left breast of a […] which had been treated for cancer of the right breast in 1974 by mastectomy, axillar resection, chemotherapy with cytoxan, metothrexate and 5-fluorouracil, and ovariectomy. In May 1999 they presented with numerous skin metastases on their upper torso and lymph node involvement. The patient underwent various therapies in Europe, which included chemotherapy, immunotherapy and hyperthermia, but numerous metastatic cutaneous and subcutaneous metastatic lesions remained on their chest, in the mastectomy scar, in the left axilla and on their back. […] As a precaution they are applying a lotion containing 0.2% solution of di-n-hexyl diselenide in jojoba oil onto areas of their skin once every two weeks.

[7] = test system: high nuclear grade intraductal carcinoma of the right breast; assay: Topical treatment of breast carcinoma, case report Example VII; format: in vivo, human
Excerpt: A person was diagnosed in July 1999 with a high nuclear grade intraductal carcinoma of the right breast. The tumor consisted of a hard mass in the lower left quadrant of the right breast of 3 cm diameter. In November 1999, a 6% di n-hexyl diselenide in a 1:1 mixture of n-decane and jojoba oil was applied onto the affected breast once per day. […] Status Jan. […] Status April 2001: Unchanged.

[8] = test system: inoperable cancer of the rectum; assay: Suppository treatment of rectal cancer, case report Example VIII; format: in vivo, human; details: suppositories containing 2% in cocoa butter, daily for 4 weeks
Method: A person was diagnosed with inoperable cancer of the rectum in 1998 and was offered radiation therapy, which they refused. A colostomy was performed in the fall of 1998. They applied suppositories containing 2% di-n-hexyl diselenide in cocoa butter daily into their rectum for a period of 4 weeks.

[9] = Excerpt: The therapeutic efficacy of the dialkyl diselenides of these compositions depends on (1) the length of the alkyl residue R, and (2) the composition of the inert carrier as these determine the degree to which they can penetrate through the skin. […] Increasing the average alkyl chain length beyond n-hexyl causes them to become less skin penetrating and more suitable for the treatment of superficial cancerous lesions. Shortening the chain length below n-hexyl increases the volatility of these compounds. This reduces their therapeutic efficacy as it causes them to evaporate when brought onto the skin.
Selection of the appropriate alkyl residues R in these compounds is important as it determines their ability to penetrate the skin. Preferred are dialkyl diselenides with linear, medium-length straight alkyl residues of at least 6 and not exceeding 8 carbon atoms.

[10] = test system: lesion diagnosed as precancerous; assay: Impregnated adhesive bandage on precancerous lesion, case report Example IV; format: in vivo, human; details: adhesive bandage impregnated with compound; person
Excerpt: A person developed a lesion diagnosed as precancerous on the upper part of their back.

[11] = test system: normal embryonic liver or lung cells; details: added to the growth media; cited from earlier work

Structure (SMILES): CCCCCCC[Se][Se]CCCCCCC [di-n-heptyl diselenide]
- outcome of squamous carcinoma lesion [1]: disappearance of the lesion
- growth of cancer cell lines [2]: inhibit the growth

Structure (SMILES): CCCCCC[Se][Se]CCCCCC [di-n-hexyl diselenide]
- outcome of skin lesion [3]: caused a layer of dead cells to be formed which dropped off after 4 days without leaving a scar
- outcome of melanotic spot [4]: caused the affected skin to turn brittle and to fall off
- outcome of breast lump [5]: lump in their breast disappeared over a period of two months
- outcome of metastatic lesions and affected lymph nodes ([6]; 5% in n-decane): caused their disappearance within two weeks
- follow-up after treatment ([6]; after 5% in n-decane): remained free of cancer for two years
- outcome of breast mass ([7]; 6% in 1:1 n-decane/jojoba oil, once per day, breast mass 3 cm diameter): Over a period of 4 weeks the breast mass shrunk and ultimately disappeared
- status by ultrasonic examination ([7]; Status Jan. 8, 2000, unchanged April 2001): No breast mass detectable
- patient status during the following 2 years [8]: their status has remained stable, they gained weight, and was able to work
- tumor mass by X-ray and sonographic examinations [8]: the tumor mass had ceased to grow
- skin penetration properties [9]: excellent skin penetration properties

Structure (SMILES): CCCCCCCC[Se][Se]CCCCCCCC [di-n-octyl diselenide]
- outcome of precancerous lesion [10]: caused the lesion to dry out and drop off without a scar within 3 weeks

Structure (SMILES): CCCCCC[SeH] [n-hexyl selenol]
- outcome of recurrences on chest and metastases on back ([6]; 10% solution in n-decane): effectively controlled
- follow-up after treatment of recurrences ([6]; after 10% solution in n-decane): remained free of obvious signs of cancer for one year

Structure (SMILES): O=[Se](O)O [sodium selenite]
- effect on normal cells [11]: without affecting
